Test results reported in the METLIN SMRT retention time set (Domingo-Almenara et al. 2019).

experiment: gradient 5% acetonitrile 3 min, to 50% in 2 min, to 85% in 15 min, held 3 min, 100 µL/min; settings: column: Zorbax Extend-C18 2.1 x 50 mm; eluents: water / acetonitrile, 0.1% formic acid
Method in brief: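 Retention times come from adduct peaks that were picked computationally and then checked by hand. The standards, pure and pooled in mixtures of ~100 molecules, were run on a Zorbax Extend-C18 column (2.1 × 50 mm, 1.8 μm) at 100 μL/min with water and acetonitrile, each with 0.1% formic acid. Detection was by quadrupole time-of-flight mass spectrometry in positive and negative ionization mode, with a dead volume of 40 μL and a dwell volume of 900 μL.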

In order of rising RP-LC retention time:
1. COc1ccccc1CC(=O)NC1CCN(Cc2c(C)noc2C)C1 (stereo not given)  584 s
2. Cc1cc(C)c(S(=O)(=O)N(CCN2CCCCC2C)CC(=O)N2CCNCC2)c(C)c1 (stereo not given)  601 s
3. NC(=O)C1CCN(C(=O)CCCc2nc3cccnc3n2Cc2ccc(F)cc2)CC1  602 s
4. CCc1nnc2cc(N3CCN(Cc4ccc(C(C)C)cc4)CC3)cnn12  608 s
5. O=C(Nc1ncccn1)c1ccc(Cl)c(S(=O)(=O)N2CCOCC2)c1  611 s
6. CC(C)n1cc(CN2CCOCCNC(=O)CC2)c2ccccc21  631 s
7. COC(=O)c1ccc(C(=O)NCC2CCN(c3ncccn3)CC2)cc1  635 s
8. O=C(c1ccc(=O)n(CCN2CCOCC2)c1)N1CCC(Cc2ccccc2)CC1  637 s
9. CC(=O)N1CCC2(CC1)OC(=O)C(C)=C2C(=O)NCCCN1CCN(c2cc(C)ccc2C)CC1  639 s
10. Cc1c(C)n(-c2ccc(Cl)cc2)c2ncn(CC(=O)NC3CCCCC3)c(=O)c12  644 s
11. COCCCNC(=O)c1ncoc1-c1ccccc1C(=O)N1CCCC1  645 s
12. CCN1C(=O)CCc2cc(NC(=O)Cc3ccc(OC)cc3Cl)ccc21  647 s
13. O=c1ccn(-c2ccccc2)nc1-c1nc(-c2ccncc2)no1  649 s
14. CCOc1ccc(CC(=O)NCC(=O)Nc2nc3ccccc3[nH]2)cc1OCC  652 s
15. Cc1noc(C)c1S(=O)(=O)N1CCC(C(C)C(=O)N2CCN(C3CCCCC3)CC2)CC1 (stereo not given)  654 s
16. Cn1nc2n(c1=O)CCN(S(=O)(=O)c1ccc(C#N)cc1)CC2  655 s
17. Cc1cc(N2CCCC2)nc(N2CCN(C(=O)C3CCCC3)CC2)n1  670 s
18. CCc1ccc2c(c1)-c1ccccc1S(=O)(=O)N2CC(=O)NCCN1CCOCC1  671 s
19. COc1ccccc1-c1nnc(NC(=O)c2c[nH]c3ccccc23)o1  678 s
20. COc1cc(-c2nc3ccc(Cl)cn3c2Nc2ccc3c(c2)OCO3)ccc1O  679 s
21. CCCNC(=O)N(C)Cc1cccnc1OCC  680 s
22. Cc1cc(OCC(=O)Nc2cccc(Br)c2)nc(N2CCCC2)n1  682 s
23. COc1ccccc1OCC(O)CN1CCN(CC(=O)Nc2c(C)cccc2C)CC1 (stereo not given)  683 s
24. COc1ccc(Cl)cc1NC(=O)NCC1(CO)CC1  684 s
25. c1ccc(COCCc2noc(C3CN(Cc4ccccc4)C3)n2)cc1  693 s
26. CNC(=O)C1CCCN(c2nc3ncn(CC(=O)Nc4ccc(C(F)(F)F)cc4)c(=O)c3s2)C1 (stereo not given)  711 s
27. O=C(CCS(=O)(=O)c1ccccc1)NCCOc1ccc(-c2ccc(F)cc2)nn1  715 s
28. Cn1c(N2CCC(C(=O)N3CCN(c4ccc(Cl)cc4)CC3)CC2)cc(=O)n(C)c1=O  721 s
29. CC(C)c1noc(-c2cccnc2N2CCCN(Cc3ccccc3Cl)CC2)n1  723 s
30. CCOC(=O)C1CCCN(C(=O)Cc2c(C(=O)O)c(C)cn2CC)C1 (stereo not given)  727 s
31. Cc1nc2nc(-c3ccccc3)nn2c(C)c1CC(=O)N1CCCCC1  735 s
32. Cc1ccc(C)c(NC(=O)Cn2ccc3sccc3c2=O)c1  742 s
33. CC1(C)Oc2ccc(C#N)cc2[C@@H](OC2=CC(=O)CC2)[C@@H]1O  746 s
34. Cc1ccc(NC(=O)c2nc(C)oc2C)c(C)c1  753 s
35. COc1ccccc1N1CCN(Cc2nc(-c3ccc(N4CCCCC4)nc3)no2)CC1  757 s
36. CCn1c(=O)c(N2CCC(NC(=O)NC)CC2)nc2ccccc21  759 s
37. CC(C)n1cc(S(=O)(=O)N2CCN(c3cccc(Cl)c3)CC2)c2cccnc21  761 s
38. O=C(NCc1csc(C2CCCN(C(=O)C3CCCCC3)C2)n1)C1CCC1 (stereo not given)  774 s
39. CC(C)c1nnc(-c2cccnc2N2CCN(C(=O)c3ccc4cc[nH]c4c3)CC2)o1  777 s
40. CN(C)c1ccc(C(=O)NC2CCN(c3ccc(F)cc3)C2=O)cc1 (stereo not given)  778 s
41. Cc1ccc2c(=O)c(C(=O)N3CCC(C)CC3)cn(CC(=O)Nc3ccccc3)c2n1  783 s
42. COc1ccc(-c2noc(N3CCC(C(=O)Nc4cc(C)on4)CC3)n2)cc1OC  784 s
43. CC1CCCN(C(=O)C2CC(=O)N(c3ccccc3)C2)C1 (stereo not given)  786 s
44. Nc1nc(CN2CCN(c3ccccn3)CC2)nc(Nc2cccc(Cl)c2)n1  788 s
45. CCNC(=O)c1cc(=O)[nH]c2c(C)cccc12  793 s
46. CC(=O)Nc1ccc(C2(C(=O)NCc3ccc(F)c(Cl)c3)CCC2)cc1  795 s
47. CN1C(=O)c2cccnc2Sc2cc(NC(=O)c3ccc(F)cc3Cl)ccc21  796 s
48. CC1(C(=O)NCc2ccc(F)cc2)CCN(C(=O)Nc2ccc(F)cc2)CC1  804 s
49. C=CCn1c(-c2ccc(OC)cc2)nc2nc3ccccc3nc21  813 s
50. Cc1noc(C)c1Cc1ccc(C(=O)N2CCCCCCN(C)C(=O)[C@@H]3CCC[C@@H]32)o1  814 s
51. Cc1nc(N2CCN(Cc3ccccc3)CC2)nc2c1C(=O)CC(c1ccc(Cl)cc1)C2 (stereo not given)  825 s
52. O=C1NC2(CCN(C(=O)c3cccc(Cl)c3)CC2)N=C1c1ccccc1  832 s
53. O=C(C1=CN(c2ccccc2F)c2cc(Cl)ccc2S1(=O)=O)N1CCCC1  842 s
54. Cc1ccc(Cl)cc1N1CCN(c2cc(C(=O)O)c3cc(NC(=O)C4CCCC4)ccc3n2)CC1  851 s
55. CC1=C(c2ccc(F)cc2)S(=O)(=O)N=C1N1CCCN(C(=O)c2ccc(C)s2)CC1  857 s
56. c1cc(-c2noc(C3CCCC3)n2)cc(N2CCOCC2)n1  872 s
57. O=C(Nc1ccc2c(c1)N(C(=O)c1ccccc1)CCC2)c1cccs1  876 s
58. CCCN1C(=O)COc2cc(-c3noc(C(=O)N4CCCC4)n3)ccc21  885 s
59. CCCn1cc(S(=O)(=O)Nc2ccc(OC)cc2)c2cccnc21  886 s
60. Cc1nc(-c2ccc(F)cc2)sc1C(=O)NC(C)C  890 s
61. Cc1cc(C)cc(Nc2ncccc2S(N)(=O)=O)c1  898 s
62. Nc1ccc(Oc2ccc(N)c([N+](=O)[O-])c2)cc1[N+](=O)[O-]  899 s
63. Cc1cc(OCC(=O)Nc2cc(F)ccc2F)nc(N2CCN(c3ccccc3)CC2)n1  900 s
64. CN(C)S(=O)(=O)c1ccc(CNC(=O)c2cccc(-c3nnc(-c4ccccc4)o3)c2)s1  904 s
65. COCCCNC(=O)c1ccc2c(c1)N=C(C)c1cc(Cl)ccc1S2  914 s
66. Cn1nc(C(=O)N2CCC3(CC2)N=C(c2ccc(Br)cc2)NO3)c2ccccc21  916 s
67. Cc1cccc(N2CCN(C(=O)Cc3nnc(-c4sccc4C)o3)CC2)c1  921 s
68. C[C@@H]1CN(C(=O)c2ccsc2)C[C@H]1c1nc(-c2ccccc2)no1  935 s
69. O=C(NCc1noc(COc2ccccc2)n1)c1ccc(-c2noc(C3CC3)n2)cc1  940 s
70. Cc1ccc(-n2nc(N3CCCC(C(=O)NCc4ccccc4F)C3)ccc2=O)cc1Cl (stereo not given)  942 s
71. COC(=O)c1cc(C)nc2c1c(=O)n(Cc1cccc(C#N)c1)c(=O)n2C  952 s
72. C=CCN1C(=O)COc2ccc(-c3csc(NC(=O)CCCC)n3)cc21  953 s
73. CCc1noc(-c2nnn3c2COC(c2ccc(F)cc2)C3)n1 (stereo not given)  960 s
74. CCn1ccc(C(=O)Nc2cccc(OCc3nnc(-c4ccc(Cl)cc4)o3)c2)n1  961 s
75. O=C(NCc1noc(CCc2ccccc2)n1)c1ccc(-c2noc(C3CC3)n2)cc1  977 s
76. CN(CCc1noc(COc2ccc(Cl)cc2)n1)C(=O)Nc1cccc(F)c1  984 s
77. Cc1cc(Nc2ccccc2)nn1C(=O)c1ccc([N+](=O)[O-])cc1  987 s
78. Cc1ccc(-c2nc(C3CC(=O)N(c4ccc(Cl)cc4)C3)no2)c(C)c1 (stereo not given)  994 s
79. O=C(Nc1cnn(-c2ncc(N3CCCCC3)cn2)c1)c1ccc(C(F)(F)F)cc1  1010 s
80. COc1cc(C(O)CCBr)c(OC)cc1C (stereo not given)  1020 s
81. COc1ccc(-c2noc(C3CC(=O)N(c4ccc(C)c(Cl)c4)C3)n2)cc1OC (stereo not given)  1020 s
82. O=c1oc(-c2ccccc2)c(-c2ccccc2)c2ccccc12  1030 s
83. Cc1ccc(CNC(=O)C2(C)CCN(S(=O)(=O)c3cc(C)cc(C)c3)CC2)cc1  1030 s
84. COc1ccc(-c2nc(Cc3noc(-c4cccc(F)c4)n3)c(C)o2)cc1  1040 s
85. CCc1ccc(Oc2cc(N3CCC(C(=O)NCc4ccc(C)cc4)CC3)ncn2)cc1  1050 s
86. Cc1ccc(Nc2c(-c3cccc(Br)c3)nc3ccc(Cl)cn23)cc1  1130 s
87. COc1cccc(-c2nc(-c3cn(-c4cccc(Cl)c4)nn3)no2)c1  1140 s
88. CCc1ccccc1N(C)S(=O)(=O)c1ccccc1-c1nc(-c2ccccc2)no1  1270 s
89. Cn1nccc1C(=O)Nc1sccc1-c1nc2ccccc2s1  1280 s
90. Cc1cc(Cl)ccc1OCC(=O)Nc1nc(-c2cccc3ccccc23)cs1  1310 s
